Source: PubChem BioAssay AID1645864 (Buhrlage Lab, Dana-Farber Cancer Institute and Novartis …, 2021)
The source made the active and inactive calls.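 How the source made its calls: active means maximal inhibition of USP17 at or above 30% in the confirmation dose-response, a value not among the printed readouts; inactive means the rest.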

What follows are compounds tested against Ubiquitin carboxyl-terminal hydrolase 17-like protein 5 (Homo sapiens) (UniProt A8MUK1) (assay: ubiquitin-specific protease 17 DUB inhibitors, concentration-effect assay, cell-free, verification of initial screening actives (AID 1645864)). Settings: purified USP17, ubiquitin-rhodamine cleavage fluorescence, 3 h.
Sequence of Ubiquitin carboxyl-terminal hydrolase 17-like protein 5 (Homo sapiens) (A8MUK1 whole entry, looked up): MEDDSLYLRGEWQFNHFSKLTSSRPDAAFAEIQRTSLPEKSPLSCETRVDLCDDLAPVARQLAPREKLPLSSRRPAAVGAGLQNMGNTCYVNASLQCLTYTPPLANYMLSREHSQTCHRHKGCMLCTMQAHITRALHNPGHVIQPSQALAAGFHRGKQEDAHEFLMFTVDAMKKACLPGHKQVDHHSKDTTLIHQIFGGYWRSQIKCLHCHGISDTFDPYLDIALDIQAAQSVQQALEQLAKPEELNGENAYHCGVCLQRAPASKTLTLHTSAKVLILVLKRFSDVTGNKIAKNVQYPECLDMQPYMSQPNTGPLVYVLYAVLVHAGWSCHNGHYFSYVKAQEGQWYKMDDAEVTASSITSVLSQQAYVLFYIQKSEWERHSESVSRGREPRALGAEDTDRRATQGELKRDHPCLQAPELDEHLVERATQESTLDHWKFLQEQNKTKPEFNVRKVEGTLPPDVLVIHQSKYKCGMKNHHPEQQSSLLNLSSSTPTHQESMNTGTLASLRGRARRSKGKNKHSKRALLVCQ

**Q.** For `CC1CCc2c(sc3ncnc(OCc4cccc([N+](=O)[O-])c4)c23)C1` (centres undefined), which IC50 is on record?
**A.** Its IC50 is > 50 µM (inactive).

**Q.** Which IC50 does the source give for `CNC(=O)c1cc2nc(N(C)C)n(-c3ccccc3)c2s1` here?
**A.** Its IC50 is > 50 µM (inactive).

**Q.** For `COc1ccccc1NC(=O)c1nn(-c2cccc(F)c2)c(OC)cc1=O`, which IC50 is on record?
**A.** The IC50 was 44.1 µM.

**Q.** For `Cc1cccc(CNC(=O)c2ccc(-c3nnc(-c4cccc(C)c4)o3)cc2)c1`, which IC50 is on record?
**A.** The IC50 was 5.03 µM.

**Q.** `COc1ccc(NC(=O)CC(=O)c2ccc([N+](=O)[O-])cc2)cc1S(=O)(=O)Nc1ccc(Cl)cc1` was tested. Which IC50 did it give?
**A.** The IC50 was 24.5 µM.

**Q.** How did the IC50 turn out when `COc1cccc(S(=O)(=O)N2CCn3nc(C(C)(C)C)cc3C2)c1` was run?
**A.** Its IC50 is 38.5 µM.

**Q.** How did the IC50 turn out when `O=C(Cn1ccc2ccc(N3CCOCC3)nc21)NCc1ccccc1F` was run?
**A.** The IC50 was > 50 µM (inactive).

**Q.** `O=C(Nc1ccc(SCc2nnc(-c3ccccc3)o2)cc1)C1CC1` was tested. Which IC50 did it give?
**A.** Its IC50 is > 50 µM (inactive).

**Q.** For `Cc1ccc2c(c1)[C@]1(C(=O)N2)[C@@H](C(=O)c2ccccc2)[C@]2(C(=O)Nc3ccccc32)[C@@H]2CCCN21`, which IC50 is on record?
**A.** The IC50 was 32 µM.

**Q.** Which IC50 does the source give for `CCN(CCCNC(=O)c1ccc(Cn2c(=O)[nH]c3ccccc3c2=O)cc1)c1ccccc1` here?
**A.** The IC50 was 16 µM.

**Q.** For `COc1c2nc3ccccc3oc-2cc(=O)c1OC`, which IC50 is on record?
**A.** The IC50 was 23.7 µM.

**Q.** Which IC50 does the source give for `Fc1ccccc1N1CCN(c2ncc3c(n2)CCN(Cc2ccccn2)C3)CC1` here?
**A.** The IC50 was 43 µM.

**Q.** With `Cc1cccc(NC(=O)CSc2ncnc3c2sc2nc(CC(C)C)c4c(c23)CCC4)c1` as the compound, how does the IC50 read?
**A.** The IC50 was 44.1 µM.

**Q.** Which IC50 does the source give for `O=C(c1cc2ccccc2o1)N1CC=C(c2ccccc2)CC1` here?
**A.** Its IC50 is > 50 µM (inactive).

**Q.** `CN(C)C(=O)CSc1nnc(-c2cccc(Cl)c2)n1-c1ccc(Cl)c(C(F)(F)F)c1` was tested. Which IC50 did it give?
**A.** The IC50 was 2.81 µM.

**Q.** `CCc1ccc(-n2c(=O)c3ccccc3n(CC(=O)NCCC3=CCCCC3)c2=O)cc1` was tested. Which IC50 did it give?
**A.** The IC50 was 17.9 µM.

**Q.** With `CC(=O)c1oc2nc3c(c(-c4ccc(Cl)cc4)c2c1N)CCc1ccccc1-3` as the compound, how does the IC50 read?
**A.** The IC50 was > 50 µM (inactive).

**Q.** For `Cc1cc(Nc2ccc(C(=O)NCc3ccco3)cc2)n2nc(-c3cccnc3)nc2n1`, which IC50 is on record?
**A.** Its IC50 is 34.1 µM.

**Q.** With `COc1ccccc1CNC(=O)C1CCCN(c2nc3ccsc3c(=O)s2)C1` (centres undefined) as the compound, how does the IC50 read?
**A.** The IC50 was 4.2 µM.

**Q.** With `C=Cc1ccc(Cn2cccc(S(=O)(=O)N3CCCC3)c2=O)cc1` as the compound, how does the IC50 read?
**A.** Its IC50 is 3.92 µM.

**Q.** For `CSc1ccc(CNCc2c(C(=O)O)n(Cc3ccccc3)c3cc(C)ccc23)cc1`, which IC50 is on record?
**A.** Its IC50 is > 50 µM (inactive).

**Q.** How did the IC50 turn out when `Cc1ccc(-c2nc(Cn3nnc(-c4nc(-c5ccccn5)no4)c3C)c(C)o2)cc1` was run?
**A.** Its IC50 is > 50 µM (inactive).

**Q.** `Cc1nn(C)c2c1[C@@H](c1ccc(F)c(Br)c1)[C@H](NC(=O)c1ccccc1)C(=O)N2` was tested. Which IC50 did it give?
**A.** The IC50 was > 50 µM (inactive).

**Q.** How did the IC50 turn out when `COc1ccc(OC)c(NC(=O)Cn2c(=O)n(CC3CCC(C(=O)NCCc4ccccc4)CC3)c(=O)c3ccccc32)c1` (centres undefined) was run?
**A.** The IC50 was 0.262 µM.

**Q.** With `CC(C)CC1NC(=O)C2CCCN2C1=O` (centres undefined) as the compound, how does the IC50 read?
**A.** Its IC50 is 37.5 µM.

**Q.** How did the IC50 turn out when `Cc1ccc2nc(N3CCc4ccccc4C3)c3nncn3c2c1` was run?
**A.** The IC50 was > 50 µM (inactive).

**Q.** Which IC50 does the source give for `O=S(=O)(Cc1nnc(-c2ccccc2C(F)(F)F)o1)c1ccc(Cl)cc1` here?
**A.** Its IC50 is > 50 µM (inactive).

**Q.** `Fc1ccc(Oc2nc(CN3CCOCC3)nc3sc4c(c23)CCCC4)c(Cl)c1` was tested. Which IC50 did it give?
**A.** The IC50 was > 50 µM (inactive).

**Q.** How did the IC50 turn out when `COc1ccc(C(C(=O)NCc2ccccc2)N(C(=O)CCN2CCc3ccccc32)c2ccc(C)c(C)c2)cc1` (centres undefined) was run?
**A.** Its IC50 is > 50 µM (inactive).

**Q.** Which IC50 does the source give for `O=c1c(-c2nc(C3CC3)no2)cccn1Cc1c(F)cccc1Cl` here?
**A.** Its IC50 is > 50 µM (inactive).

**Q.** For `CC(C)N(C(=O)Cn1c(=O)[nH]c2ccccc21)c1ccccc1`, which IC50 is on record?
**A.** The IC50 was > 50 µM (inactive).

**Q.** For `Cc1c(C)n(-c2ccccc2)c2ncn(CC(=O)NC(C)c3ccccc3)c(=O)c12` (centres undefined), which IC50 is on record?
**A.** Its IC50 is 22.5 µM.

**Q.** With `COc1c(C)c(C(O)C(C)O)c2[nH]c3ccc(CC=C(C)C)cc3c2c1O` (centres undefined) as the compound, how does the IC50 read?
**A.** The IC50 was 17.1 µM.

**Q.** How did the IC50 turn out when `COc1ccc(CNC(=O)CCc2nnc3n(Cc4ccccc4Cl)c(=O)c4ccccc4n23)cc1` was run?
**A.** Its IC50 is 2.65 µM.

**Q.** With `COC(=O)c1ccc(Cn2cnc3ccc(Br)cc3c2=O)o1` as the compound, how does the IC50 read?
**A.** Its IC50 is > 50 µM (inactive).

**Q.** Which IC50 does the source give for `CCc1cc2cc3c(cc2nc1SCC(=O)Nc1cccc(C(C)=O)c1)OCO3` here?
**A.** Its IC50 is 2.29 µM.

**Q.** With `O=C(COC(=O)c1cc2c(s1)CCC2)c1ccc2[nH]c(=O)[nH]c2c1` as the compound, how does the IC50 read?
**A.** The IC50 was 15.7 µM.

**Q.** `Cc1ccc(C(=O)NCc2ccc(C(=O)Nc3cccc(C)c3)o2)cc1` was tested. Which IC50 did it give?
**A.** The IC50 was 32.5 µM.

**Q.** `O=C(CNc1ccc(F)c(Cl)c1)Nc1ccc2c(c1)OCCO2` was tested. Which IC50 did it give?
**A.** The IC50 was > 50 µM (inactive).

**Q.** With `CC(=O)c1ccc(NC(=O)C[n+]2cc(-c3ccc(Cl)cc3)n3c2CCC3)cc1` as the compound, how does the IC50 read?
**A.** Its IC50 is 32.1 µM.

**Q.** Which IC50 does the source give for `CC(C)(C)c1ccc(C(=O)Nc2ccc(Cn3cncn3)cc2)cc1` here?
**A.** The IC50 was > 50 µM (inactive).

**Q.** For `CCOc1ccc(CCNC(=O)c2ccc3c(c2)N(CC)C(=O)c2ccccc2S3)cc1OCC`, which IC50 is on record?
**A.** Its IC50 is > 50 µM (inactive).

**Q.** How did the IC50 turn out when `COc1cccc(CN2CCc3nc4nc(C)ccc4cc3C2)c1` was run?
**A.** The IC50 was > 50 µM (inactive).

**Q.** `COc1ccc(OC)c(C2CC(=O)Nc3n[nH]c(-c4ccccc4)c32)c1` (centres undefined) was tested. Which IC50 did it give?
**A.** Its IC50 is 24.6 µM.

**Q.** `COc1ccc(C)cc1NC(=O)C1CC(=O)Nc2nc3ccccc3n21` (centres undefined) was tested. Which IC50 did it give?
**A.** Its IC50 is 33.9 µM.

**Q.** With `COC(=O)CC1CC23OC2(C(=O)c2c(O)cccc2C3=O)C(C)O1` (centres undefined) as the compound, how does the IC50 read?
**A.** The IC50 was 0.161 µM.

**Q.** With `O=C1CN(C(=O)COC(=O)CCCN2C(=O)c3cccc4cccc(c34)C2=O)c2ccccc2N1` as the compound, how does the IC50 read?
**A.** The IC50 was 49.3 µM.

**Q.** `O=C(NCc1cccnc1)c1cnn2c(C(F)(F)F)cc(-c3ccc(F)cc3)nc12` was tested. Which IC50 did it give?
**A.** Its IC50 is 27.7 µM.

**Q.** For `COc1ccc(Cl)cc1NC(=O)Cn1c(=O)cc(C)c2c(C)nn(-c3ccccc3)c21`, which IC50 is on record?
**A.** Its IC50 is 5.81 µM.
